Results from ChEMBL document CHEMBL4813956, “Cytotoxic Physalins from Aeroponically Grown Physalis acutifolia” (J Nat Prod, 2021).

Key:
MCF7 [1] = test: Cytotoxicity against human MCF7 cells assessed as cell growth inhibition up to 10 uM measured after 24 to 72 hrs by MTT assay relative to control; format: functional; conditions: dose microM <=10; time 24-72 hrs
PC-3 [2] = test: Cytotoxicity against human PC-3 cells assessed as cell growth inhibition up to 10 uM measured after 24 to 72 hrs by MTT assay relative to control; format: functional; conditions: dose microM <=10; time 24-72 hrs
NCI-H460 [3] = test: Cytotoxicity against human NCI-H460 cells assessed as cell growth inhibition up to 10 uM measured after 24 to 72 hrs by MTT assay relative to control; format: functional; conditions: dose microM <=10; time 24-72 hrs
WI-38 [4] = test: Cytotoxicity against human WI-38 cells assessed as cell growth inhibition up to 10 uM measured after 24 to 72 hrs by MTT assay relative to control; format: cell-based; conditions: time 24-72 hrs
SF-268 [5] = test: Cytotoxicity against human SF-268 cells assessed as cell growth inhibition up to 10 uM measured after 24 to 72 hrs by MTT assay relative to control; format: functional; conditions: dose microM <=10; time 24-72 hrs
MCF7 [6] = test: Cytotoxicity against human MCF7 cells assessed as cell growth inhibition measured after 24 to 72 hrs by MTT assay; format: functional, cell-based
WI-38 [7] = test: Cytotoxicity against human WI-38 cells assessed as cell growth inhibition measured after 24 to 72 hrs by MTT assay; format: cell-based
NCI-H460 [8] = test: Cytotoxicity against human NCI-H460 cells assessed as cell growth inhibition measured after 24 to 72 hrs by MTT assay; format: functional, cell-based
SF-268 [9] = test: Cytotoxicity against human SF-268 cells assessed as cell growth inhibition measured after 24 to 72 hrs by MTT assay; format: functional, cell-based
PC-3 [10] = test: Cytotoxicity against human PC-3 cells assessed as cell growth inhibition measured after 24 to 72 hrs by MTT assay; format: functional, cell-based
MCF7 [11] = test: Cytotoxicity against human MCF7 cells assessed as cell growth inhibition measured after 24 to 72 hrs in presence of 5beta,6beta-epoxy-2,3-dihydrophysalin C-3beta-O-sulfate by MTT assay; format: functional, cell-based
WI-38 [12] = test: Cytotoxicity against human WI-38 cells assessed as cell growth inhibition measured after 24 to 72 hrs in presence of 5beta,6beta-epoxy-2,3-dihydrophysalin C-3beta-O-sulfate by MTT assay; format: cell-based
SF-268 [13] = test: Cytotoxicity against human SF-268 cells assessed as cell growth inhibition measured after 24 to 72 hrs in presence of 5beta,6beta-epoxy-2,3-dihydrophysalin C-3beta-O-sulfate by MTT assay; format: functional, cell-based
NCI-H460 [14] = test: Cytotoxicity against human NCI-H460 cells assessed as cell growth inhibition measured after 24 to 72 hrs in presence of 5beta,6beta-epoxy-2,3-dihydrophysalin C-3beta-O-sulfate by MTT assay; format: functional, cell-based
PC-3 [15] = test: Cytotoxicity against human PC-3 cells assessed as cell growth inhibition measured after 24 to 72 hrs in presence of 5beta,6beta-epoxy-2,3-dihydrophysalin C-3beta-O-sulfate by MTT assay; format: functional, cell-based
NCI-H460 [16] = test: Cytotoxicity against human NCI-H460 cells assessed as cell growth inhibition measured after 24 to 72 hrs in presence of 2,3-dihydrophysalin F-3beta-O-sulfate by MTT assay; format: functional, cell-based
PC-3 [17] = test: Cytotoxicity against human PC-3 cells assessed as cell growth inhibition measured after 24 to 72 hrs in presence of 2,3-dihydrophysalin F-3beta-O-sulfate by MTT assay; format: functional, cell-based
SF-268 [18] = test: Cytotoxicity against human SF-268 cells assessed as cell growth inhibition measured after 24 to 72 hrs in presence of 2,3-dihydrophysalin F-3beta-O-sulfate by MTT assay; format: functional, cell-based
MCF7 [19] = test: Cytotoxicity against human MCF7 cells assessed as cell growth inhibition measured after 24 to 72 hrs in presence of 2,3-dihydrophysalin F-3beta-O-sulfate by MTT assay; format: functional, cell-based
WI-38 [20] = test: Cytotoxicity against human WI-38 cells assessed as cell growth inhibition measured after 24 to 72 hrs in presence of 2,3-dihydrophysalin F-3beta-O-sulfate by MTT assay; format: cell-based
PC-3 [21] = test: Cytotoxicity against human PC-3 cells assessed as cell growth inhibition measured after 24 hrs by MTT assay; format: functional, cell-based; conditions: PC-3, 24 h
MCF7 [22] = test: Cytotoxicity against human MCF7 cells assessed as cell growth inhibition measured after 24 hrs by MTT assay; format: functional, cell-based; conditions: MCF7, 24 h

Row | SMILES | growth inhibition (GI) (MCF7 [1]) | growth inhibition (GI) (PC-3 [2]) | growth inhibition (GI) (NCI-H460 [3]) | growth inhibition (GI) (WI-38 [4]) | growth inhibition (GI) (SF-268 [5]) | IC50 (MCF7 [6]) | IC50 (WI-38 [7]) | IC50 (NCI-H460 [8]) | IC50 (SF-268 [9]) | IC50 (PC-3 [10]) | also measured
1 | CO[C@]12CC=CC(=O)[C@]1(C)[C@H]1CC[C@@]3(O)C(=O)O[C@@]4(C)[C@H]5C[C@]6(C)[C@@H](CO[C@@]7(O[C@]34[C@H]6C7=O)[C@@H]1C[C@H]2O)C(=O)O5 | <50% | <50% | <50% | < 50% | <50% |  |  |  |  |  | 
2 | C[C@@]12C[C@H]3OC(=O)[C@@H]1CO[C@]14O[C@]5([C@H]2C1=O)[C@@](O)(CC[C@H]1[C@H]4C[C@@H](O)[C@@]2(Cl)CC=CC(=O)[C@]12C)C(=O)O[C@@]35C |  |  |  |  |  | 2100 nM | 3.9 µM | 600 nM | 800 nM | 1000 nM | 
3 | C[C@@]12C[C@H]3OC(=O)[C@@H]1CO[C@]14O[C@@]5([C@H]2C1=O)[C@@]3(C)OC(=O)[C@@]5(O)CC[C@H]1[C@H]4C[C@@H](O)[C@@]2(O)CC=CC(=O)[C@]12C | <50% | <50% | <50% | < 50% | <50% |  |  |  |  |  | 
4 | C=C1C(=O)O[C@@H]2C[C@@]1(C)[C@@H]1C(=O)[C@]3(O)O[C@@]14[C@@](O)(CC[C@H]1[C@H]3C[C@@H](O)[C@@]3(Cl)CC=CC(=O)[C@]13C)C(=O)O[C@@]24C |  |  |  |  |  | 1200 nM | 3.2 µM | 600 nM | 500 nM | 800 nM | 
5 | C[C@@]12C[C@H]3OC(=O)[C@@H]1CO[C@]14O[C@]5([C@H]2C1=O)[C@@](O)(CC[C@H]1[C@H]4C[C@H]2O[C@]24C[C@@H](OS(=O)(=O)O)CC(=O)[C@]14C)C(=O)O[C@@]35C |  |  |  |  |  |  |  |  |  |  | IC50 (MCF7 [11]): > 7.2 µM; IC50 (WI-38 [12]): > 10 µM; IC50 (SF-268 [13]): 2400 nM; IC50 (NCI-H460 [14]): 2000 nM; IC50 (PC-3 [15]): 2600 nM
6 | C=C1C(=O)O[C@@H]2C[C@@]1(C)[C@@H]1C(=O)[C@]3(O)O[C@@]14[C@@](O)(CC[C@H]1[C@H]3C[C@H]3O[C@]35C[C@@H](OS(=O)(=O)O)CC(=O)[C@]15C)C(=O)O[C@@]24C |  |  |  |  |  |  |  |  |  |  | IC50 (NCI-H460 [16]): 2000 nM; IC50 (PC-3 [17]): 2600 nM; IC50 (SF-268 [18]): 2400 nM; IC50 (MCF7 [19]): > 7.2 µM; IC50 (WI-38 [20]): > 10 µM
7 | C/C(=C1/C(=O)C[C@H]2[C@@H]3[C@@H]4O[C@@H]4[C@@]4(O)CC=CC(=O)[C@]4(C)[C@H]3CC(=O)[C@]12C)[C@H]1C[C@]2(C)O[C@]2(C)C(=O)O1 |  |  |  |  |  | > 10000 nM | > 10 µM | 6500 nM | 7200 nM | 2300 nM | IC50 (PC-3 [21]): 68 µM; IC50 (MCF7 [22]): > 100 µM
8 | CC(=O)O[C@]12O[C@@]34[C@@H](C1=O)[C@]1(C)C[C@@H](OC(=O)[C@H]1C)[C@]3(C)OC(=O)[C@]4(O)CC[C@H]1[C@H]2C[C@H]2O[C@]23CCCC(=O)[C@]13C | <50% | <50% | <50% | < 50% | <50% |  |  |  |  |  | 
9 | CO[C@@H]1CC(=O)[C@]2(C)[C@H]3CC[C@@]4(O)C(=O)O[C@@]5(C)[C@H]6C[C@]7(C)[C@@H](CO[C@@]8(O[C@]45[C@H]7C8=O)[C@@H]3C[C@H]3O[C@]32C1)C(=O)O6 | <50% | <50% | <50% | < 50% | <50% |  |  |  |  |  | 
10 | C=C1C(=O)O[C@@H]2C[C@@]1(C)[C@@H]1C(=O)[C@]3(O)O[C@@]14[C@@](O)(CC[C@H]1[C@H]3C[C@H]3O[C@]35CC=CC(=O)[C@]15C)C(=O)O[C@@]24C |  |  |  |  |  | 1700 nM | 3.9 µM | 1200 nM | 900 nM | 1000 nM | 
11 | C[C@@H]1C(=O)O[C@@H]2C[C@@]1(C)[C@@H]1C(=O)[C@]3(O)O[C@@]14[C@@](O)(CC[C@H]1[C@H]3C[C@H]3O[C@]35CCCC(=O)[C@]15C)C(=O)O[C@@]24C | <50% | <50% | <50% | < 50% | <50% |  |  |  |  |  | 
12 | C[C@@]12C[C@H]3OC(=O)[C@@H]1CO[C@]14O[C@@]5([C@H]2C1=O)[C@@]3(C)OC(=O)[C@@]5(O)CC[C@H]1[C@H]4C[C@H]2O[C@]23CC=CC(=O)[C@]13C |  |  |  |  |  | 600 nM | 3.5 µM | 1000 nM | 500 nM | 1000 nM | 
13 | COc1cccc2c1C(=O)c1c(O)c3c(c(O)c1C2=O)C[C@@](O)(C(=O)CO)C[C@@H]3O[C@H]1C[C@H](N)[C@H](O)[C@H](C)O1 [DOXORUBICIN] |  |  |  |  |  |  |  |  | 500 nM |  | 
14 | C[C@]12C(=O)C=CCC1=CC[C@@H]1[C@@H]2CC[C@]2(O)C(=O)O[C@@]3(C)[C@H]4C[C@]5(C)[C@@H](CO[C@@]16O[C@@]32[C@H]5C6=O)C(=O)O4 [PHYSALIN B] |  |  |  |  |  | 1000 nM | 3.3 µM | 900 nM | 600 nM | 1000 nM | 
